Reference: patent US6433150B1, “Anthracycline analogues bearing latent alkylating substituents” (Board of Regents, The University of Texas System, priority 1990, dated 2002)
Where two headings read alike, the source gives them in different places.

How the values were obtained:
P388 = conditions: cited from earlier work
[1] = test system: CEM (VLB) cells (human T-lymphoblastic cell line resistant to Velban (vinblastine)); test: Cytotoxicity studies, CEM (VLB) cells; assay type: cell-based; conditions: for IC50: six days incubation with drug at 37° C., Velban (vinblastine) resistant line; for Resistance index ([CEM(VLB)]/[CEM]): ratio of IC50 values
[2] = test system: CEM cells (human T-lymphoblastic cell line); test: Cytotoxicity studies, CEM cells; assay type: cell-based; conditions: for IC50: six days incubation with drug at 37° C.
[3] = test system: 8226R40 human myeloma cells; test: Potency to 8226R40 human myeloma cells; assay type: cell-based
[4] = Solubility in aqueous media; assay type: physicochemical
Text: (§1) To the best of applicants' knowledge, dialdehyde monoacetals such as 10 have not been reported previously. [These should be versatile synthetons in organic synthesis since the acetal ester groups can be cleaved under extremely mild conditions (weak base or esterase activity)]. Condensation of 10 with doxorubicin, 11, in the presence of NaCNBH3 generated 2a directly in >50% yield. Evidence for the structure of 2a was obtained by ^1H and COSY NMR, and by mass spectrometry.

Stability at neutral pH = assay type: physicochemical
Text: as §1

COc1cccc2c1C(=O)c1c(O)c3c(c(O)c1C2=O)C[C@@](O)(C(=O)CO)C[C@@H]3O[C@H]1C[C@H](N)[C@H](O)[C@H](C)O1 [Doxorubicin, reference compound]
T/C value against P388 (P388): 160%
IC50 ([1]; Homo sapiens, CEM-VLB, 144 h): 1340 nM
Resistance index ([CEM(VLB)]/[CEM]) [1]: 134
IC50 ([2]; Homo sapiens, CCRF-CEM, 144 h): 10 nM
IC50 ([3]; Homo sapiens): 600 nM

COc1cccc2c1C(=O)c1c(O)c3c(c(O)c1C2=O)C[C@@](O)(C(=O)CO)C[C@@H]3O[C@H]1C[C@H](NCCCCC(OC(C)=O)OC(C)=O)[C@H](O)[C@H](C)O1.Cl [Compound 2a, N-(5,5-Diacetoxypentyl) doxorubicin hydrochloride]
solubility in aqueous media [4]: freely soluble
cross resistance against the velban resistant mutant ([1]; compared with doxorubicin): markedly reduced cross resistance
Resistance index ([CEM(VLB)]/[CEM]) [1]: 6
IC50 [1]: 1 nM
stability at neutral pH (Stability at neutral pH): stable
times more toxic to the parent CEM cells than doxorubicin ([2]; relative to doxorubicin): 60 times
IC50 [2]: 0.15 nM
IC50 [3]: 1.5 nM
times more potent to 8226R40 human myeloma cells than doxorubicin ([3]; relative to doxorubicin): 400 times

COc1cccc2c1C(=O)c1c(O)c3c(c(O)c1C2=O)C[C@@](O)(C(C)=O)C[C@@H]3O[C@H]1C[C@H](N2CCOCC2)[C@H](O)[C@H](C)O1 [3′-Deamino-3-(4-morpholinyl)daunorubicin]
T/C value against P388 (P388): 166%
active dose relative to the dose of doxorubicin (P388): one-fortieth

N-(2,2-Diacetoxyethyloxyethyl) doxorubicin HCl [Compound 2b]
Resistance index ([CEM(VLB)]/[CEM]) [1]: 5
IC50 [1]: 15 nM
IC50 [2]: 3 nM
